Source: patent EP0364584A1, “ANTIDOTE FOR ORGANIC PHOSPHORUS COMPOUND POISONING” (priority 1988, dated 1989)
Where two headings read alike, the source gives them in different places.

Experiments:
[1] = biological target: T1, Azetylcholinesterase des Rattengehirns (Rattus norvegicus, UniProt P37136); assay: Histochemical study of acetylcholinesterase activity in rat brain; type: in vivo, Ratten
T1 construct: Azetyl- und Buty rylcholinesterase des Rattengehirns; from tissue; host or cells: rat brain sections after in vivo dosing
T1 sequence (P37136 32-614): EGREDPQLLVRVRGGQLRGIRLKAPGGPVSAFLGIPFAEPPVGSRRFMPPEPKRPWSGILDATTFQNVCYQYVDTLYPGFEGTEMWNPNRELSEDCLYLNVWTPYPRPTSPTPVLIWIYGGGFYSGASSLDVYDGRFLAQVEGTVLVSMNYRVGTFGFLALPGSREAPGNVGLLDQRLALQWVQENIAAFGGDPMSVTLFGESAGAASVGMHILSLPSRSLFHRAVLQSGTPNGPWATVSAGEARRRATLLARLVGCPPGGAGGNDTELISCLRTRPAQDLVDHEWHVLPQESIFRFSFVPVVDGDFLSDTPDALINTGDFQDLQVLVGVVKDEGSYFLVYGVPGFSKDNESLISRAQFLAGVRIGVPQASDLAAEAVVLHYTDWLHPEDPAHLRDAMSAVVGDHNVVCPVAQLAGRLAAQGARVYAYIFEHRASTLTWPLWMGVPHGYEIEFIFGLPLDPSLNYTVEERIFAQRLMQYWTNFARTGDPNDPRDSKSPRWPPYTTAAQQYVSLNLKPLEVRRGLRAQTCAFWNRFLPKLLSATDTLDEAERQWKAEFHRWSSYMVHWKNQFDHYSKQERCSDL
Source text: (§1) Nach den histochemischen Methoden wurde der Einfluss des erfindungsgemässen Arzneimittels auf die Aktivität der Azetyl- und Buty rylcholinesterase des Rattengehirns untersucht und es wurde gezeigt, dass dieser von der Dosis des Arzneimittels und der Einführungszeit abhängt. […] Die Fermenthemmung wird bis 2 Stunden lang beobachtet, nachher folgt eine unbedeutende Aktivierung der Azetylcholinesterase, die bis 24 Stunden aufrechterhalten bleibt.

[2] = tested on: kardiovaskuläre System und die Atmung; assay: Effect on cardiovascular system, respiration and muscle; type: in vivo
[3] = Acute toxicity, single administration, dogs; details: dog, in vivo, sc; Hunde, subkutan; read-out: LD50 (mg/kg) und deren zuverlässige Grenzen P = 0,05
Source text: (§2) Die Toxizität des erfindungsgemässen Arzneimittels bei der einmaligen Einführung (die akute Toxizität) wurde an geschlechtsreifen Tieren (an Mäusen, Ratten, Katzen, Hunden) bestimmt. Die Analyse der experimentellen Angaben für Mäuse und Ratten wurde nach der Methode der Probit-Analyse nach Litchfield und Wilcoxon, und für Hunde und Katzen nach der Methode der Anreicherung der Frequenz nach Behrens durchgeführt.
(§3) Die Toxizitätsparameter LD50 wurden für Mause bei der intraperitonealen und subkutanen Einführung, für Ratten bei der subkutanen, intramuskulären und enteralen Einführung, für Katzen bei der intramuskulären Einführung und für Hunde bei der subkutanen Einführung bestimmt.

[4] = Acute toxicity, single administration, cats; details: cat, in vivo, im; Katzen, intramuskulär; read-out: LD50 (mg/kg) und deren zuverlässige Grenzen P = 0,05
Source text: as §2, §3

[5] = biological target: T2, Butyrylcholinesterase des Rattengehirns (Rattus norvegicus, UniProt Q9JKC1); assay: Histochemical study of butyrylcholinesterase activity in rat brain; type: in vivo, Ratten
T2 construct: from tissue; host or cells: rat brain sections (glia, capillaries) after in vivo dosing
T2 sequence (Q9JKC1 24-597): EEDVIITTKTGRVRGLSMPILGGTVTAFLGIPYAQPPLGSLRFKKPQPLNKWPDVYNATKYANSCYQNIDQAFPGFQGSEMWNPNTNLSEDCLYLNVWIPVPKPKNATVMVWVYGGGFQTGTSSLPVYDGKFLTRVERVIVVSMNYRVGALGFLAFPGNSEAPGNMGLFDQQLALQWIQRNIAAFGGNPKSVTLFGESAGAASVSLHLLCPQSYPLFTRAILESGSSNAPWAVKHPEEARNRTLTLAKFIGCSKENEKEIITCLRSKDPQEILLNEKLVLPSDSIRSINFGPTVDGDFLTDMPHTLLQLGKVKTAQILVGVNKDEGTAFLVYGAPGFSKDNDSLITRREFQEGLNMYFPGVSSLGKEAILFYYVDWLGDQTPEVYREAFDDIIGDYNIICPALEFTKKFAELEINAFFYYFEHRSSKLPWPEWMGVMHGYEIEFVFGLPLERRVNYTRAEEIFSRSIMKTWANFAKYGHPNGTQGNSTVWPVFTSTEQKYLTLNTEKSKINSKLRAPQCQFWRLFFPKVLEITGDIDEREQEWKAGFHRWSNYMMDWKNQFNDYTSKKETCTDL
Source text: as §1
Es muss hervorgehoben werden, dass die beobachteten Veränderungen der Aktivität des Ferments von keinem deutlich ausgeprägten Charakter sind.

[6] = Content of the drugs in blood and brain after intramuscular administration (Askew method); type: in vivo, Ratten; details: for concentration at 2 h: 2 St., read-out: Konzentration (µg/g) 2 St. (converted); for concentration at 3 h: 3 St., read-out: Konzentration (µg/g) 3 St.; for concentration at 5 min: read-out: Konzentration (µg/g) 5 min; for concentration at 20 min: read-out: Konzentration (µg/g) 20 min (converted); for concentration at 0.5 h: 30 min, read-out: Konzentration (µg/g) 30 min; for concentration at 1 h: read-out: Konzentration (µg/g) I St.; for concentration at 10 min: IO min, read-out: Konzentration (µg/g) IO min (converted)
Method: Mit Hilfe der Methode von Askew (1956) wurde in der Dynamik der Gehalt des erfindungsgemäßen Arzneimittels im Blut und Gehirn der Tiere untersucht. Die Untersuchungen wurden im Vergleich zum bekannten Präparak TMB-4 vorgenommen. Die Geschwindigkeit des Eindringens beider Präparate ins Blut und deren Konzentration wurden bei der-intramuskulären Einführung in Dosen von 20 ..und 50 mg/kg und der Gehirnspiegel - in einer Dosis von 50 mg/kg bestimmt. […]
Es wurde festgestellt, daß die Präparate schnell (nach 5 min) von der Einführungsstelle ins Blut eindringen, dabei wurde unabhängig von der Prüfdosis der Präparate deren Maximalgehalt im Blut 20 min nach der Einführung beobachtet, zwar erhöhte die Vergrößerung der Dosis der Präparate bis 50 mg/kg wesentlich deren Konzentrationsniveau während der ganzen Beobachtungsfrist.
Die im Vergleich zu TMB-4 durchgeführten Untersuchungen haben ergeben, dass während der ersten Stunde der Blutgehalt und das Anwachsen der Konzentrationen beider Präparate gleich waren. […] Die Untersuchungsergebnisse sind in der Tabelle 3 angeführt.
Nach den Ergebnissen der durchgeführten Untersuchungen wurde festgestellt, dass das erfindungsgemässe Arz- neimittel bei der intramuskulären Einführung schnell ins Blut und Gehirn des Tieres eindringt und zum Unterschied von TMB-4 eine längere Zeit im 3lutstrom zirkuliert und von 5 min an bis 4 Stunden Beobachtung im Gehirn in bedeutend grösseren Mengen enthalten ist.

[7] = biological target: T3, Azetylcholinesterase des menschlichen Bluts (Homo sapiens, UniProt P22303); assay: Reactivation in vitro of erythrocyte cholinesterase inhibited by organophosphorus compounds (potentiometric titration); type: biochemical; details: reactivator 1.10^-4 M01/1, 25°C, pH 7,5
T3 construct: Cholinesterase des Grundgerüstes der Erythrozyten des menschlichen Bluts; from tissue; host or cells: human erythrocyte stroma (ghosts)
T3 sequence (P22303 other isoform, or with tags, fused parts or gaps): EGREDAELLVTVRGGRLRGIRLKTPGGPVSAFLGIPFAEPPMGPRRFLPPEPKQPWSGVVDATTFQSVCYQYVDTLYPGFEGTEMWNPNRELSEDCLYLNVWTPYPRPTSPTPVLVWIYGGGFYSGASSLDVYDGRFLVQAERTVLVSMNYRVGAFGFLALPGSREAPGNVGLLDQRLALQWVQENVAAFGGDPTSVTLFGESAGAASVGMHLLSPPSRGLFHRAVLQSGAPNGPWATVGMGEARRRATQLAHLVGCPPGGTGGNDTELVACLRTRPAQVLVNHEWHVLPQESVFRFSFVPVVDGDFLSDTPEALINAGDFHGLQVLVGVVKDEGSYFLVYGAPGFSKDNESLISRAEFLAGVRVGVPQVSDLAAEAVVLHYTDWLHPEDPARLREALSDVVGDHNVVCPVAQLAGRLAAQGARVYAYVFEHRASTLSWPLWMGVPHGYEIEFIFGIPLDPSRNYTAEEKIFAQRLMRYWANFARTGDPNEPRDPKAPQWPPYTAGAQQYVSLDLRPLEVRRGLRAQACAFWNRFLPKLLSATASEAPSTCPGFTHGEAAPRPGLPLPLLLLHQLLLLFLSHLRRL

[8] = tested on: Kranken mit akuten peroralen Vergiftungen mit verschiedenen phosphororganischen Insektiziden; assay: Clinical study in patients with acute oral poisoning by organophosphorus insecticides; type: in vivo, Menschen
Source text: Das erfindungsgemässe Arzneimittel wurde in der Klinik an Kranken mit akuten peroralen Vergiftungen mit verschiedenen phosphororganischen Insektiziden untersucht. Insgesamt wurden 183 Menschen behandelt, die in die Klinik gelangten. Daraus befanden sich 26 Menschen in einer leichten, 48 Kranke - in einer mässigen und 75 Kranke in einer schweren Vergiftungsstufe. Das Alter der Geschädigten schwankte von 15 bis 76 Jahren. Die Zeit des Behandlungsbeginns betrug I bis 12 stunden nach der Einnahme des Insektizids und in 28 Fällen wurde die Behandlung vor der Hospitalisierung begonnen.
Die therapeutische Effektivität des erfindungsgemässen Arzneimittels wurde mit der ähnlichen Wirkung des wirksamsten bekannten Präparats TMB-4 verglichen (insgesamt 50 Menschen) .
Das erfindungsgemässe Arzneimittel wurde in Kombination mit Atropin neben aktiven Methoden der Detoxikation ausgenutzt, die die Giftentfernung aus dem Organismus bezweckten und das Durchwaschen des Magens, die Verordnung von Abführungsmitteln, Siphon- und Abführungsklystieren, die Beschleunigung der Diurese, aktive symptomatische und Erhaltungstherapie, allgemein stärkenden Behandlung, Massnahmen zur Korrektion der Störungen des säurig-alkalischen und wässrigen und Elektrolytzustands einschliessen. […]

[9] = rat, blood, im, Blut, Dosis 20 mg/kg intramuskulär, Ratten
[10] = rat, blood, im, Blut, Dosis 50 mg/kg intramuskulär, Ratten
[11] = rat, brain, im, Gehirn, Dosis 50 mg/kg intramuskulär, Ratten

In the case of `C=CC[n+]1ccccc1C=NO` [das erfindungsgemässe Arzneimittel, N-Allyl-2-pyridinaldoxiinbromid], the “Einfluss auf die Aktivität der Azetyl- und Butyrylcholinesterase des Rattengehirns” value ([1]; Dosis 5 mg/kg, histochemical) is reported as “keine Abweichung der Fermentaktivität von der Norm”, the “Einfluss auf die Aktivität der Azetylcholinesterase” value ([1]; Dosis 20 mg/kg, except white matter of hemispheres and Formatio reticularis neurons (inhibition 30 min bis 2 Stunden)) is reported as “verändert es auch im wesentlichen die Aktivität der Azetylcholinesterase nicht” and the “Einfluss auf die Aktivität der Azetylcholinesterase” value ([1]; Dosis 50 mg/kg, several brain structures, inhibition bis 2 Stunden, then slight activation bis 24 Stunden) is reported as “deutlicher ausgeprägte Veränderungen der Azetylcholinesteraseaktivität”. For the same molecule, the “Aktivität der Azetylcholinesterase in den Neuronen der Grosshirnrinde” value ([1]; Dosis 20 und 50 mg/kg) was “keine Veränderungen der Aktivität der Azetylcholinesterase festgestellt”, the “myotrope Wirkung” value ([2]; in vivo) was “keine myotrope Wirkung” and the “arterieller Blutdruck” value ([2]; intravenöse Einführung (12 bis 15 mg/kg)) was “setzte unbedeutend für eine kürzere Zeit den arteriellen Blutdruck herab”. For the same molecule, the “Einfluss auf das kardiovaskuläre System und die Atmung” value ([2]; subkutane Einführung in hohen Dosen (10 und 20 mg/kg)) was “keinen Einfluss”, the LD50 [3] was 112 mg/kg and the LD50 [4] was 126 mg/kg. The “Aktivität der Butyrylcholinesterase in den Kapillaren aller Bildungen des Gehirns” value ([5]; bis 2 Tage lang, dose dependent, more marked at 50 mg/kg) was “unbedeutende Aktivierung des Ferments”, the “Aktivität der Butyrylcholinesterase in den Nervenkittzellen des Gehirns” value ([5]; in allen untersuchten Konzentrationen) was “die Aktivität der Butyrylcholinesterase in den Nervenkittzellen des Gehirns nicht” and the “Konzentration (µg/g) I St.” value ([6]; Blut, Dosis 50 mg/kg intramuskulär, I St., Ratten) was “IO,I”. The “Konzentrationsniveau im Blut im Vergleich zu TMB-4” value ([6]; late time points (printed: 3 und 1 Stunden)) was “ungefähr um das Doppelte”, the concentration at 2 h [6, 9] was 2.3 µg/g and the concentration at 3 h [6, 9] was 0.92 µg/g. It also gave a concentration at 5 min [6, 9] of 2.95 µg/g, a concentration at 20 min [6, 9] of 5.16 µg/g and a concentration at 0.5 h [6, 9] of 4.7 µg/g. It also gave a concentration at 1 h ([6]; rat, blood, im, Blut, Dosis 20 mg/kg intramuskulär, I St., Ratten) of 4.4 µg/g, a concentration at 10 min [6, 9] of 4.95 µg/g and a concentration at 2 h [6, 10] of 4.6 µg/g. The concentration at 3 h [6, 10] was 3.6 µg/g, the concentration at 5 min [6, 10] was 16.2 µg/g and the concentration at 20 min [6, 10] was 18 µg/g. The concentration at 0.5 h [6, 10] was 12.7 µg/g, the concentration at 10 min [6, 10] was 19 µg/g and the Tmax ([6]; rat, blood, im, intramuskuläre Einführung, summary statement, read-out: Maximalniveau erreicht nach) was 20 to 30 min. It also gave a concentration at 2 h [6, 11] of 1.12 µg/g, a concentration at 3 h [6, 11] of 0.64 µg/g and a concentration at 5 min [6, 11] of 2.64 µg/g. For the same molecule, the concentration at 20 min [6, 11] was 4 µg/g, the concentration at 0.5 h [6, 11] was 3.75 µg/g and the concentration at 1 h ([6]; rat, brain, im, Gehirn, Dosis 50 mg/kg intramuskulär, I St., Ratten) was 2.06 µg/g. The concentration at 10 min [6, 11] was 5.65 µg/g, the activity at 100 µM ([7]; 0.5 h, pH 7, inhibited with O,O-Dimethyl-(2,2,2-trichlor-1-oxyäthyl) phosphonat, 0,5 h, read-out: Aktivität der Azetylcholinesterase in % (Reaktivationszeit in Stunden) 0,5) was 53.6% and the activity at 100 µM ([7]; 0.5 h, pH 7, inhibited with O,O-Dimethyl-S-(1,2-dikarbäthoxyäthyl)-dithiophosphat, 0,5 h, read-out: Aktivität der Azetylcholinesterase in % (Reaktivationszeit in Stunden) 0,5) was 48.1%. The activity at 100 µM ([7]; 1 h, pH 7, inhibited with O,O-Dimethyl-(2,2,2-trichlor-1-oxyäthyl) phosphonat, 1 h, read-out: Aktivität der Azetylcholinesterase in % (Reaktivationszeit in Stunden) 1) was 72.2%, the activity at 100 µM ([7]; 1 h, pH 7, inhibited with O,O-Dimethyl-S-(1,2-dikarbäthoxyäthyl)-dithiophosphat, 1 h, read-out: Aktivität der Azetylcholinesterase in % (Reaktivationszeit in Stunden) 1) was 75% and the activity at 100 µM ([7]; 2 h, pH 7, inhibited with O,O-Dimethyl-(2,2,2-trichlor-1-oxyäthyl) phosphonat, 2 h, read-out: Aktivität der Azetylcholinesterase in % (Reaktivationszeit in Stunden) 2) was 72.3%. For the same molecule, the activity at 100 µM ([7]; 2 h, pH 7, inhibited with O,O-Dimethyl-S-(1,2-dikarbäthoxyäthyl)-dithiophosphat, 2 h, read-out: Aktivität der Azetylcholinesterase in % (Reaktivationszeit in Stunden) 2) was 78.1%, the “Nebenerscheinungen und Kontraindikationen” value ([8]; Einzeldosis 0,075 g, Kurdosis 0,4 bis 1,6 g) was “keine Nebenerscheinungen und Kontraindikationen” and the “Kennziffer der Funktion der Leber und der Stoffwechselprozesse” value ([8]; Eiweissfraktion, Bilirubin, Transaminasenaktivität, Blutzucker, Elektrolyt- und Gaswechsel) was “zu deren Normalisierung beiträgt”.
